Measurements taken from US10640507B2, “PBD antibacterial agents” (KING'S COLLEGE LONDON, priority 2015, dated 2020).
≈ marks a conversion by molar mass, not a printed value. Where two headings read alike, the source gives them in different places.

Key:
P. aeruginosa PA01 = test: General MIC protocol, Gram negative; format: cell-based
Method: (§1) General Minimum Inhibitory Concentration (MIC) Protocol
(§2) 1. Grow up cultures of bacterial strains to be tested overnight.
(§3) 2. Dilute down overnight cultures to concentration of 1×10^6 bacteria/ml (OD0.01) in Tryptic soy broth (TSB).
(§4) 3. Add 100 μl of TSB media to column 2-column 12 in 96 well plate (keeping column 1 clear).
(§5) 4. Make up compound to a concentration of 64 μg/ml in water (or alternatively to twice the chosen maximum concentration to be tested).
(§6) 5. Add 100 μl of antibiotic solution to the 1st and 2nd columns.
(§7) 6. Using a multichannel pipette take 100 μl from the 2nd column wells and pipette into 3rd column wells and repeat down the 96 well plate (remembering to include controls i.e. uninfected media and media with no antibiotic).
(§8) 7. To each well (except uninfected control row H) add 100 μl of bacterially infected media at a concentration of 1×10^6/ml.
(§9) 8. This dilutes down the concentration of the antibiotic by half (top dose is therefore 32 μg/ml in column 1) and also gives you a starting bacterial concentration of 5×10^5/ml.
(§10) 9. Wrap plate with parafilm to prevent evaporation.
(§11) 10. Leave at desired temperature (37° C. unless specified elsewhere) for 20 hours.
(§12) 11. Next day check plates for growth and measure optical density (i.e. absorbance) at a wavelength of 600 nm (OD600).
(§13) An example of such a plate is shown in FIG. 1 where column A represents wells that receive the top dose 100 μl; column B represents wells that receive the top dose 100 μl+100 μl TSB; and column C represents wells that receive 100 μl TSB. Row H which is marked by a box labelled D represents a blank where the cells receive no bacteria.

K. pneumonia NCTC 13439 = test: General MIC protocol, Gram negative; format: cell-based; conditions: Klebsiella pneumoniae, NCTC13439
Method: as §1, §2, §3, §4, §5, §6, §7, §8, §9, §10, §11, §12, §13

K. pneumonia MGH 78578 = test: General MIC protocol, Gram negative; format: cell-based; conditions: Klebsiella pneumoniae, MGH78578
Method: as §1, §2, §3, §4, §5, §6, §7, §8, §9, §10, §11, §12, §13

[1] = test system: A. baumannii - NCTC 17978; test: Time kill kinetics; format: cell-based; conditions: drug at 4×MIC
Method: 1. Grow bacteria overnight.
2. Subculture into an autoclaved conical flask containing 10 ml of TSB to an OD of 0.01 (˜1×10^7 Cfu/ml for KP-M6).
4. Take aliquots (100 μl) at timepoints (0, 1, 2, 4, 6, 24 hours) and carry out a serial dilution in PBS (to remove drug and to dilute bacteria to countable numbers).
5. Use the serial dilution to perform a Miles Misra—i.e. Add 3×10 μl spots of each dilution onto an agar plate. Incubate overnight and count colonies on spots in the morning.
6. Control: Subculture bacteria alongside samples but with no antibiotic added. Take aliquots from this at every time point (0, 1, 2, 4, 6, 24 hours) and perform Miles Misra on these too (as detailed in points 4 and 5 above).
7. After the first experiment, if the counts seen on Miles-Misra were zero, total viable counts were determined by spreading 200 μl in a streak down the centre of a TSB agar plate, waiting for the liquid to be absorbed and then spreading over the plate and checking for growth inhibition at the sight of the original streak.
8. The compound is considered bactericidal if the inoculum was reduced >3 log10 CFU/ml and bacteriostatic if inoculum was reduced by 0-3 log10 CFU/ml.
Three measurements were taken for each compound at each time point. These measurements were averaged and the standard deviation was also calculated.

S. aureus gyrase = target: T1, S. aureus gyrase (Staphylococcus aureus, UniProt P0A0K8+P20831); test: Gyrase microplate assay; format: biochemical; conditions: agent 10-75 μM, FIG. 6
T1 construct: purchased Inspiralis (Norwich, UK) SATRG01
Method: (§14) The effect of the antimicrobial agents on gyrase was assessed using E. coli gyrase microplate assay kit (# TRG01) and with S. aureus gyrase microplate assay kit (# SATRG01). The effect of topoisomerase IV using was assessed using E. coli Topo IV microplate assay kit (# TRIV01) and with the S. aureus Topo IV microplate assay kit (# SATRIV01). All of these assay kits were obtained from Inspiralis (Norwich, UK). These assay kits are supplied with the relevant enzyme, substrate and buffers.
(§15) 1. Rehydrate wells with 3×200 μl Wash buffer (diluted from 20× stock with ultra-pure water).
(§16) 2. Immobilise 100 μl of 500 nM TF01 oligo in each well (5 μl of 10 μM TF01 oligo in 95 μl wash buffer).
(§17) 3. Incubate 5 minutes at room temperature.
(§18) 4. Wash off excess oligo with 3×200 μl Wash buffer.
(§19) 5. Incubate 2U (0.4 μl stock) of gyrase with 0.75 μg of relaxed pN01 in a reaction volume of 30 μl at 37° C. for 30 minutes in assay buffer—This is the part agent is added therefore the reaction volume is adjusted to account for this.
(§20) 6. Add 100 μl TF buffer (diluted from 20× stock) to well and incubate for a further 30 minutes at room temperature to allow triplex formation.
(§21) 7. Remove liquid from well and wash with 3×200 μl TF buffer to wash away unbound plasmid.
(§22) 8. Stain with DNA detection dye (diluted to ix with T10 buffer). Add 200 μl per well and incubate for 10-20 minutes at room temperature.
(§23) 9. Mix well and read in fluorescence plate reader Excitation wavelength: 495 nm; Emission wavelength: 537 nm. Use 485/520 filters in plate reader in 231.
(§24) 10. If required 10 μl of sample can be used to run on 1% agarose gel.
(§25) As the reaction volume is 30 μl make concentrations at 30× greater than required so 1 μl of the appropriate concentration can be added to the reaction. For each agent concentrations from a range of 10-75 μM.
(§26) Xmin—minima among all data points
(§27) Xmax—maxima among all data points
(§28) Xi0-1—data point normalised between 0-1

E. coli gyrase = target: T2, E. coli gyrase (Escherichia coli, UniProt P0AES4+P0AES6); test: Gyrase microplate assay; format: biochemical; conditions: agent 10-75 μM, FIG. 6
T2 construct: purchased Inspiralis (Norwich, UK) TRG01
Method: as §14, §15, §16, §17, §18, §19, §20, §21, §22, §23, §24, §25, §26, §27, §28

[2] = Pseudomonas aeruginosa, PA01, PA01

T2 sequence (P0AES4 whole entry, one chain of several): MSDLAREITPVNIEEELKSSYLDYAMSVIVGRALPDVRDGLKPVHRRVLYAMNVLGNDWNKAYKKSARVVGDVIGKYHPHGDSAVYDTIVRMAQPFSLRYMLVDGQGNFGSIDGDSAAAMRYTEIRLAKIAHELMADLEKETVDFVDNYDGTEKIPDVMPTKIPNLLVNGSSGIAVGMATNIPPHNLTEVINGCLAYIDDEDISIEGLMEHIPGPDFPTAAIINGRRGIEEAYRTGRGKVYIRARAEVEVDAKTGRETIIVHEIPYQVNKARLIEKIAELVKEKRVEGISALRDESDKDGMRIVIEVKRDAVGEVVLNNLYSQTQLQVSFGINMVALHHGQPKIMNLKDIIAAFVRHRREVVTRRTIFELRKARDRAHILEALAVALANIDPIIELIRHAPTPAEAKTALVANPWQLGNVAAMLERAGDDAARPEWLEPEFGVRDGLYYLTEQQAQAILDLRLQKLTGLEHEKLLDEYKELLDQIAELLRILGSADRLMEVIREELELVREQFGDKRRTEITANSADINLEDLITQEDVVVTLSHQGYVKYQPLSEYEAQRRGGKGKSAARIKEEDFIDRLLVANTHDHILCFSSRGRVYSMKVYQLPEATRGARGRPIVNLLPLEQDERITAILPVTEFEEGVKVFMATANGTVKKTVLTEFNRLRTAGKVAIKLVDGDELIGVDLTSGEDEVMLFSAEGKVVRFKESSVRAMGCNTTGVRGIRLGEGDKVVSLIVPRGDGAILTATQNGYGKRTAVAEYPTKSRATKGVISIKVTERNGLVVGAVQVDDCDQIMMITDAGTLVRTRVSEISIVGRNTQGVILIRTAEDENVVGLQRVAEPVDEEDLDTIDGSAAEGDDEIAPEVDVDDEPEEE
T1 sequence (P0A0K8 whole entry): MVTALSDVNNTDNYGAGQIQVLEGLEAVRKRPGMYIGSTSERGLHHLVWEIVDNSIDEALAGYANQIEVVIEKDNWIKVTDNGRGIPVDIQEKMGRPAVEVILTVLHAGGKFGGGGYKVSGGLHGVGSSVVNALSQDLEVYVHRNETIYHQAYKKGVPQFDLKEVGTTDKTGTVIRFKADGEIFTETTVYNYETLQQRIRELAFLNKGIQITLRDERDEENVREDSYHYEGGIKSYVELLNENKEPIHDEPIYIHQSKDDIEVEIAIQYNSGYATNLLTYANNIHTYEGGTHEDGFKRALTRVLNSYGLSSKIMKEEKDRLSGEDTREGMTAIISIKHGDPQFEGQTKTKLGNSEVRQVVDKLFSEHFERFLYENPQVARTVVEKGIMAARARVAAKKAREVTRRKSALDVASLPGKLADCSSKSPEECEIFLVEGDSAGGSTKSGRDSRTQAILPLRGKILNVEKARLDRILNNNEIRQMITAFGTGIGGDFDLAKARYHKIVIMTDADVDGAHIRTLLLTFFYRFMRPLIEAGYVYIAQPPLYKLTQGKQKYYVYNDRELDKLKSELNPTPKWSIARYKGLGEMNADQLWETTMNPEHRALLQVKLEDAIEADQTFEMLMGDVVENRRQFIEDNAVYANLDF
T1 sequence (P20831 whole entry): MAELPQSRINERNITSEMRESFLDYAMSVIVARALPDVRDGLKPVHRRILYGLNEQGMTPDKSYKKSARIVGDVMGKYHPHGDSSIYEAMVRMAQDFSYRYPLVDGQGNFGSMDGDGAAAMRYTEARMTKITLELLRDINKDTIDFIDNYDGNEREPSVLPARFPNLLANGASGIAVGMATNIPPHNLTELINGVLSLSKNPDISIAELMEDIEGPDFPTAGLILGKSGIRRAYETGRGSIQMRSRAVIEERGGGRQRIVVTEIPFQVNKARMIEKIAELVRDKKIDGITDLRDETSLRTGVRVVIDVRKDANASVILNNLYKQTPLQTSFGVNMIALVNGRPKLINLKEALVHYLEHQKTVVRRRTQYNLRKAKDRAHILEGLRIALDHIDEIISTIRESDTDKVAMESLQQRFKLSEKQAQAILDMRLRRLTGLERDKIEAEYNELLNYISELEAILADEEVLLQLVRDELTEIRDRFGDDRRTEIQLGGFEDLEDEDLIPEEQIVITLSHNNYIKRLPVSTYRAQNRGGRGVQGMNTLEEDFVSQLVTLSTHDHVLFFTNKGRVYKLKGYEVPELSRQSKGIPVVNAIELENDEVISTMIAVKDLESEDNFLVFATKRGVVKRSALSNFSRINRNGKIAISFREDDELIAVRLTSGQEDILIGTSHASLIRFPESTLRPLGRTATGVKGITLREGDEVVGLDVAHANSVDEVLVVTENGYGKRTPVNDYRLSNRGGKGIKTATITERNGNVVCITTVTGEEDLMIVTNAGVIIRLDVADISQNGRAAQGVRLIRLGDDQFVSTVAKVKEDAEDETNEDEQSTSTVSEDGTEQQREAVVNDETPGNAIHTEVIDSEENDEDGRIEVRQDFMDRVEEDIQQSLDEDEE

Compound	Average (CFU/ml) ([1]; time-point 1 hours)	n = 1 (Log CFU/ml) ([1]; time-point 1 hours)	n = 2 (Log CFU/ml) ([1]; time-point 1 hours)	Average (CFU/ml) ([1]; time-point 2 hours)	n = 1 (Log CFU/ml) ([1]; time-point 2 hours)	n = 2 (Log CFU/ml) ([1]; time-point 2 hours)	Average (CFU/ml) ([1]; time-point 4 hours)	n = 1 (Log CFU/ml) ([1]; time-point 4 hours)	n = 2 (Log CFU/ml) ([1]; time-point 4 hours)	Average (CFU/ml) ([1]; time-point 6 hours)	n = 1 (Log CFU/ml) ([1]; time-point 6 hours)	n = 2 (Log CFU/ml) ([1]; time-point 6 hours)	Average (CFU/ml) ([1]; time-point 24 hours)	n = 1 (Log CFU/ml) ([1]; time-point 24 hours)	n = 2 (Log CFU/ml) ([1]; time-point 24 hours)	effect on gyrase (S. aureus gyrase)	effect on gyrase (E. coli gyrase)	MIC (P. aeruginosa PA01; [2]) [µg/mL]	MIC (K. pneumonia NCTC 13439) [µg/mL]	MIC (K. pneumonia MGH 78578) [µg/mL]	also measured
O=C(O)c1cn(C2CC2)c2cc(N3CCNCC3)c(F)cc2c1=O [CIP, ciprofloxacin, reference compound]	7000	19000	0	584	1500	0	10.7	0	30	0	0	0	4	10	0	inhibits	inhibits	–	–	–	MIC (P. aeruginosa PA01; Pseudomonas aeruginosa, PA01, read-out: MIC): 1 µg/mL (≈ 3.02 µM); MIC (K. pneumonia NCTC 13439; K. pneumonia NCTC 13439, read-out: MIC): 8 to 16 µg/mL (≈ 24.1 to 48.3 µM); MIC (K. pneumonia MGH 78578; K. pneumonia MGH 78578, read-out: MIC): 1 µg/mL (≈ 3.02 µM)
COc1cc2c(cc1OCCCC(=O)Nc1cc(C(=O)Nc3ccc4sc(C(=O)N(C)C)cc4c3)n(C)c1)N=C[C@@H]1CCCN1C2=O [KMR-14-33, (S)—N-(2-(dimethylcarbamoyl)benzo[b]thiophen-5-yl)-4-(4-((7-methoxy-5-oxo-2,3,5,11a-tetrahydro-1H-benzo[e]pyrrolo[1,2-a][1,4]-diazepin-8-yl)oxy)butanamido)-1-methyl-1H-pyrrole-2-carboxamide]	0	0	0	0	0	0	0	0	0	0	0	0	0	0	0	–	–	> 32	2 (≈ 3.05 µM)	1 (≈ 1.52 µM)	MIC (P. aeruginosa PA01; PA01, KMR-14-33 alone): > 32 µg/mL; n = 3 (Log CFU/ml) ([1]; time-point 1 hours): 0 Log CFU/ml; n = 3 (Log CFU/ml) ([1]; time-point 2 hours): 0 Log CFU/ml; n = 3 (Log CFU/ml) ([1]; time-point 4 hours): 0 Log CFU/ml; n = 3 (Log CFU/ml) ([1]; time-point 6 hours): 0 Log CFU/ml; n = 3 (Log CFU/ml) ([1]; time-point 24 hours): 0 Log CFU/ml
COc1cc2c(cc1OCCCC(=O)Nc1cc(C(=O)Nc3ccc4oc(C(=O)N5CCSCC5)cc4c3)n(C)c1)N=C[C@@H]1CCCN1C2=O [PP-A148, (S)-4-(4-((7-methoxy-5-oxo-2,3,5,11a-tetrahydro-1H-benzo-[e]pyrrolo[1,2-a][1,4]diazepin-8-yl)oxy)butanamido)-1-methyl-N-(2-(thiomorpholine-4-carbonyl)benzofuran-5-yl)-1H-pyrrole-2-carboxamide]	–	–	–	–	–	–	–	–	–	–	–	–	–	–	–	inhibits	inhibits	128 (≈ 183 µM)	4 to 8 (≈ 5.72 to 11.4 µM)	4 to 8 (≈ 5.72 to 11.4 µM)	MIC (P. aeruginosa PA01; PA01): >128 µg/mL
